Results taken from ChEMBL document CHEMBL1821574, “Structure-activity relationships of 4-position diamine quinoline methanols as intermittent preventative treatment (IPT) against Plasmodium falciparum” (J Med Chem, 2011).
Values after ≈ are worked out from the molar mass of the structure shown.

What was measured:
[1] = tested on: Plasmodium falciparum; assay: Antimalarial activity against chloroquine-sensitive and mefloquine-resistant Plasmodium falciparum D6 by SYBR Green I-based fluorescence assay; type: functional
[2] = Apparent permeability from apical to basolateral side of dog MDCK cells at 5 uM after 2 hrs by LC/MS/MS analysis; type: ADME, cell-based, Canis lupus familiaris
[3] = tested on: Plasmodium falciparum; assay: Antimalarial activity against chloroquine, mefloquine and pyrimethamine-resistant Plasmodium falciparum TM91C235 by SYBR Green I-based fluorescence assay; type: functional
[4] = tested on: Plasmodium falciparum; assay: Antimalarial activity against chloroquine, mefloquine and pyrimethamine-resistant Plasmodium falciparum TM91C235 assessed as inhibition of [3H]hypoxanthine incorporation by liquid scintillation spectrometry; type: functional
[5] = tested on: Plasmodium falciparum; assay: Antimalarial activity against chloroquine, mefloquine and pyrimethamine-resistant Plasmodium falciparum TM90C2A assessed as inhibition of [3H]hypoxanthine incorporation by liquid scintillation spectrometry; type: functional
[6] = tested on: Plasmodium falciparum; assay: Antimalarial activity against chloroquine-resistant and mefloquine-sensitive Plasmodium falciparum W2 assessed as inhibition of [3H]hypoxanthine incorporation by liquid scintillation spectrometry; type: functional
[7] = tested on: Plasmodium falciparum; assay: Antimalarial activity against chloroquine-sensitive and mefloquine-resistant Plasmodium falciparum D6 assessed as inhibition of [3H]hypoxanthine incorporation by liquid scintillation spectrometry; type: functional
[8] = tested on: Plasmodium falciparum; assay: Antimalarial activity against chloroquine-resistant and mefloquine-sensitive Plasmodium falciparum W2; type: functional
[9] = tested on: Plasmodium falciparum; assay: Antimalarial activity against chloroquine, mefloquine and pyrimethamine-resistant Plasmodium falciparum TM91C235; type: functional
[10] = tested on: Plasmodium falciparum; assay: Antimalarial activity against chloroquine, mefloquine and pyrimethamine-resistant Plasmodium falciparum TM90C2A; type: functional
[11] = tested on: Plasmodium falciparum; assay: Antimalarial activity against mefloquine-resistant and chloroquine-sensitive Plasmodium falciparum D6; type: functional

| Compound | IC90 [1] [µg/mL] | Papp A→B at 2 h, 5 µM [2] [×10⁻⁶ cm/s] | IC90 [3] [µg/mL] | IC90 [4] [µg/mL] | IC90 [5] [µg/mL] | IC90 [6] [µg/mL] | IC90 [7] [µg/mL] | also measured |
| --- | --- | --- | --- | --- | --- | --- | --- | --- |
| CC(CNC1CCC1)NCC(O)c1cc(C(F)(F)F)nc2c(C(F)(F)F)cccc12 (stereo not drawn) | 0.0014 (≈ 0.00322 µM) | 10.4 | 0.0093 (≈ 0.0214 µM) | – | – | – | – | – |
| CC(CNC1CCCC1)NCC(O)c1cc(C(F)(F)F)nc2c(C(F)(F)F)cccc12 (stereo not drawn) | 0.03 (≈ 0.0667 µM) | 11.1 | 0.124 (≈ 0.276 µM) | – | – | – | – | – |
| O=C1NCCC1N(CCNCC(O)c1cc(C(F)(F)F)nc2c(C(F)(F)F)cccc12)C1CCNC1=O (stereo not drawn) | – | – | – | > 0.5 | > 0.5 | 0.487 (≈ 0.913 µM) | > 0.5 | – |
| NCCCNCCNCC(O)c1cc(C(F)(F)F)nc2c(C(F)(F)F)cccc12 (stereo not drawn) | – | – | – | > 0.5 | > 0.5 | > 0.5 | 0.38 (≈ 0.895 µM) | – |
| CN(C)CCNCC(O)c1cc(C(F)(F)F)nc2c(C(F)(F)F)cccc12 (stereo not drawn) | – | – | – | > 0.5 | > 0.5 | > 0.5 | > 0.5 | – |
| CCCCNCCNCC(O)c1cc(C(F)(F)F)nc2c(C(F)(F)F)cccc12 (stereo not drawn) | 0.128 (≈ 0.302 µM) | 5.9 | 0.236 (≈ 0.557 µM) | 0.283 (≈ 0.668 µM) | 0.319 (≈ 0.753 µM) | 0.069 (≈ 0.163 µM) | 0.155 (≈ 0.366 µM) | – |
| CNCCNCC(O)c1cc(C(F)(F)F)nc2c(C(F)(F)F)cccc12 (stereo not drawn) | – | – | – | > 0.5 | > 0.5 | 0.481 (≈ 1.26 µM) | > 0.5 | – |
| CN(CCNCC(O)c1cc(C(F)(F)F)nc2c(C(F)(F)F)cccc12)C1CCCC1 (stereo not drawn) | 0.035 (≈ 0.0779 µM) | 17 | 0.109 (≈ 0.243 µM) | 0.106 (≈ 0.236 µM) | 0.112 (≈ 0.249 µM) | 0.011 (≈ 0.0245 µM) | 0.048 (≈ 0.107 µM) | – |
| OC(CNCCNc1ccccc1)c1cc(C(F)(F)F)nc2c(C(F)(F)F)cccc12 (stereo not drawn) | 0.028 (≈ 0.0631 µM) | 13 | 0.07 (≈ 0.158 µM) | – | – | – | – | – |
| NCCNCC(O)c1cc(C(F)(F)F)nc2c(C(F)(F)F)cccc12 (stereo not drawn) | 0.988 (≈ 2.69 µM) | 3.1 | 1.14 (≈ 3.11 µM) | – | – | – | – | – |
| OC(CNCCN(C1CCCCC1)C1CCCCC1)c1cc(C(F)(F)F)nc2c(C(F)(F)F)cccc12 (stereo not drawn) | 0.0093 (≈ 0.0175 µM) | 24.7 | 0.022 (≈ 0.0414 µM) | – | – | – | – | – |
| CC(C)NCCNCC(O)c1cc(C(F)(F)F)nc2c(C(F)(F)F)cccc12 (stereo not drawn) | 0.012 (≈ 0.0293 µM) | 12.7 | 0.032 (≈ 0.0782 µM) | – | – | – | – | – |
| OC(CNCCNC1CC1)c1cc(C(F)(F)F)nc2c(C(F)(F)F)cccc12 (stereo not drawn) | 0.041 (≈ 0.101 µM) | 2.8 | 0.128 (≈ 0.314 µM) | – | – | – | – | – |
| CC(C)(C)NCCNCC(O)c1cc(C(F)(F)F)nc2c(C(F)(F)F)cccc12 (stereo not drawn) | 0.243 (≈ 0.574 µM) | 11.2 | 0.504 (≈ 1.19 µM) | – | – | – | – | – |
| OC(CNCCNC1CCCC1)c1cc(C(F)(F)F)nc2c(C(F)(F)F)cccc12 (stereo not drawn) | 0.11 (≈ 0.253 µM) | 3 | 0.198 (≈ 0.455 µM) | – | – | – | – | – |
| OC(CNCCNC1CCCCC1)c1cc(C(F)(F)F)nc2c(C(F)(F)F)cccc12 (stereo not drawn) | 0.122 (≈ 0.271 µM) | 2.7 | 0.142 (≈ 0.316 µM) | – | – | – | – | – |
| CC(C)N(C)CCNCC(O)c1cc(C(F)(F)F)nc2c(C(F)(F)F)cccc12 (stereo not drawn) | 0.044 (≈ 0.104 µM) | 9.03 | 0.079 (≈ 0.187 µM) | – | – | – | – | – |
| OC(CNCCNC1CCC1)c1cc(C(F)(F)F)nc2c(C(F)(F)F)cccc12 (stereo not drawn) | 0.081 (≈ 0.192 µM) | 8.54 | 0.138 (≈ 0.327 µM) | – | – | – | – | – |
| O[C@@H](CNCCNC1CC1)c1cc(C(F)(F)F)nc2c(C(F)(F)F)cccc12 | – | – | – | – | – | – | – | IC90 [8]: 0.011 µg/mL (≈ 0.027 µM); IC90 [9]: 0.103 µg/mL (≈ 0.253 µM); IC90 [10]: 0.075 µg/mL (≈ 0.184 µM); IC90 [11]: 0.037 µg/mL (≈ 0.0908 µM) |
| OC(CNC[C@]12CC[C@H](C1)NC2)c1cc(C(F)(F)F)nc2c(C(F)(F)F)cccc12 (stereo partly drawn) | – | – | – | > 0.5 | > 0.5 | 0.57 (≈ 1.32 µM) | > 0.5 | – |
| OC(NC[C@H]1CCCN1)c1cc(C(F)(F)F)nc2c(C(F)(F)F)cccc12 (stereo partly drawn) | – | – | – | 0.074 (≈ 0.188 µM) | 0.054 (≈ 0.137 µM) | 0.008 (≈ 0.0203 µM) | 0.04 (≈ 0.102 µM) | – |
| OC(NC[C@]12CC[C@@H](C1)NC2)c1cc(C(F)(F)F)nc2c(C(F)(F)F)cccc12 (stereo partly drawn) | – | – | – | 0.26 (≈ 0.62 µM) | – | 0.275 (≈ 0.656 µM) | 0.075 (≈ 0.179 µM) | – |
| OC(CNCCNCc1ccccc1)c1cc(C(F)(F)F)nc2c(C(F)(F)F)cccc12 (stereo not drawn) | 0.029 (≈ 0.0634 µM) | 8.5 | 0.04 (≈ 0.0874 µM) | – | – | 0.006 (≈ 0.0131 µM) | 0.025 (≈ 0.0547 µM) | – |
| CC1C(NCC(O)c2cc(C(F)(F)F)nc3c(C(F)(F)F)cccc23)CC2CC1C2(C)C (stereo not drawn) | – | – | – | 0.019 (≈ 0.0413 µM) | 0.016 (≈ 0.0347 µM) | – | 0.014 (≈ 0.0304 µM) | – |
| CCN(CC)CCCC(C)Nc1ccnc2cc(Cl)ccc12 (stereo not drawn) [CHLOROQUINE] | – | – | – | – | – | – | – | IC90 [8]: 0.266 µg/mL (≈ 0.832 µM); IC90 [9]: 0.089 µg/mL (≈ 0.278 µM); IC90 [10]: 0.139 µg/mL (≈ 0.435 µM); IC90 [11]: 0.0051 µg/mL (≈ 0.0159 µM) |
